Some test systems named below: HCT-116 colon; EKVX NSCLC; HL-60(TB) leukemia; M14 melanoma; UACC-257 melanoma; A549 NSCLC; NCI-H522 lung; RPMI-8226 leukemia; HCC-2998 colon; BT-549 breast.
Test in all cases: inhibition of tumour cell growth, NCI panel, 48 h

These results are taken from PubChem BioAssay (NCI).

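A five-concentration, 48-hour dose response in 96-well plates underlies each endpoint, interpolated linearly between surrounding concentrations. The concentration for 50% growth inhibition is given as GI50. Definition used: TGI = concentration required for complete inhibition of growth.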

In the case of `CCN(CC)CCOc1ccc(CCc2cc(OC)c(OC)c(OC)c2)cc1`, the TGI in the experiment with HCT-116 colon is greater than 100 µM; in the experiment on EKVX NSCLC it was greater than 100 µM; in the experiment on HL-60(TB) leukemia, 44.4 µM; with M14 melanoma, 34.3 µM; in the experiment with UACC-257 melanoma, 69.9 µM; in the experiment with A549 NSCLC it was greater than 100 µM. The TGI in the experiment with NCI-H522 lung is greater than 100 µM; with RPMI-8226 leukemia it was 51.5 µM.

`C[C@]12CCC(=O)C=C1CC[C@@H]1C2CC[C@]2(C)Nc3c(cnn3-c3ccccc3)CC12` (stereo partly specified): the TGI in the experiment on HCC-2998 colon, in the experiment with HCT-116 colon, with EKVX NSCLC, with HL-60(TB) leukemia, in the experiment on M14 melanoma and in the experiment on UACC-257 melanoma was greater than 100 µM in each case. The TGI with A549 NSCLC and in the experiment on RPMI-8226 leukemia was greater than 100 µM throughout.

`CN1CCN(CCOc2ccc(-c3cnc4c(-c5ccc(C(F)(F)F)cc5)cnn4c3)cc2)CC1`: the GI50 with HCC-2998 colon is 1.67 µM; in the experiment with HCT-116 colon, 1.38 µM; in the experiment with EKVX NSCLC, 1.51 µM; in the experiment on BT-549 breast, 1.62 µM; in the experiment on M14 melanoma, 1.7 µM; with UACC-257 melanoma, 1.66 µM. The GI50 in the experiment on A549 NSCLC is 1.63 µM; in the experiment on NCI-H522 lung it was 1.55 µM. In addition, the TGI with HCC-2998 colon stood at 3.34 µM; in the experiment on HCT-116 colon it was 2.81 µM; in the experiment on EKVX NSCLC, 2.97 µM; in the experiment on BT-549 breast it was 3.04 µM; in the experiment on M14 melanoma, 3.25 µM; with UACC-257 melanoma it was 3.34 µM. Also, the TGI was 3.3 µM in the experiment on A549 NSCLC and 3.16 µM in the experiment with NCI-H522 lung.

For `CC(C)CCCC(C)[C@H]1CCC2[C@@H]3CCC4Nc5nocc5C[C@]4(C)C3CC[C@@]21C` (stereo partly specified), the TGI in the experiment on HCC-2998 colon was 29.5 µM; in the experiment on HCT-116 colon, 32.4 µM; in the experiment on EKVX NSCLC it was 31.3 µM; with HL-60(TB) leukemia it was 27.6 µM; in the experiment on M14 melanoma, 41.8 µM; in the experiment with UACC-257 melanoma, 39.5 µM. For the same compound, the TGI was 54.8 µM in the experiment with A549 NSCLC, 14.5 µM in the experiment with NCI-H522 lung and 69.3 µM in the experiment with RPMI-8226 leukemia.

For `O=C1C2C3C=C4c5ccccc5N(c5ccccc5)C4(C2C(=O)N1c1ccc(Cl)cc1)[C@H]1C(=O)N(c2ccc(Cl)cc2)C(=O)[C@@H]31` (stereo partly specified), the TGI with HCT-116 colon, in the experiment with EKVX NSCLC, in the experiment on HL-60(TB) leukemia, in the experiment with M14 melanoma, in the experiment with UACC-257 melanoma and with A549 NSCLC was greater than 100 µM each time. Also, the TGI in the experiment on NCI-H522 lung and with RPMI-8226 leukemia was greater than 100 µM throughout.

In the case of `Cc1ccc(SSc2ccc(C)cc2C(=O)O)c(C(=O)O)c1`, the TGI in the experiment with EKVX NSCLC, with HL-60(TB) leukemia, in the experiment on UACC-257 melanoma, in the experiment on A549 NSCLC and in the experiment on NCI-H522 lung was greater than 100 µM each time.

Regarding `Cc1cc(NCCCCCCNc2cc(C)nc3cc(N(C)C)ccc23)c2ccc(N(C)C)cc2n1`, the TGI in the experiment on HCC-2998 colon is greater than 100 µM; with HCT-116 colon it was greater than 100 µM; in the experiment on EKVX NSCLC, greater than 100 µM; in the experiment with HL-60(TB) leukemia, 8.52 µM; with M14 melanoma, greater than 100 µM; in the experiment with UACC-257 melanoma, greater than 100 µM. The TGI with NCI-H522 lung is greater than 100 µM.

For `O=C(Nc1ccncc1)C(=O)c1cn(Cc2ccc(Cl)cc2)c2ccccc12`, the GI50 with HCC-2998 colon is 0.114 µM; in the experiment on HCT-116 colon, 0.048 µM; in the experiment with EKVX NSCLC it was 0.261 µM; with HL-60(TB) leukemia, 0.0327 µM; with M14 melanoma it was 0.048 µM; with A549 NSCLC, 0.399 µM. Also, the GI50 in the experiment on RPMI-8226 leukemia is 0.0416 µM. The TGI is greater than 100 µM with HCC-2998 colon; greater than 100 µM in the experiment with HCT-116 colon; greater than 100 µM in the experiment on EKVX NSCLC; 0.237 µM in the experiment on HL-60(TB) leukemia; greater than 100 µM with M14 melanoma; greater than 100 µM in the experiment with A549 NSCLC. In addition, in the experiment with RPMI-8226 leukemia, the TGI is greater than 100 µM.

`C1=CC=C2NCCCCCCCNC3=CC=CC=CC3=NCCCCCCCN=C2C=C1`: the TGI in the experiment on HCC-2998 colon, with HCT-116 colon, with EKVX NSCLC, with HL-60(TB) leukemia, in the experiment with UACC-257 melanoma and in the experiment on A549 NSCLC was greater than 100 µM in each case. Also, the TGI with NCI-H522 lung and with RPMI-8226 leukemia was greater than 100 µM throughout.

On to `O=C1NC2(CCCCCC2)C2CCCCCCC12O` (stereo unspecified), for which the TGI with HCT-116 colon, in the experiment on EKVX NSCLC, with HL-60(TB) leukemia, in the experiment with M14 melanoma, with UACC-257 melanoma and with A549 NSCLC was greater than 100 µM in each case. Moreover, the TGI in the experiment on NCI-H522 lung was greater than 100 µM.

In the case of `COc1ccc(-c2nc(/C=N/Nc3cc(C)nc4ccc(Cl)cc34)c(C)o2)cc1`, the GI50 in the experiment with HCC-2998 colon is 1.85 µM; in the experiment with HCT-116 colon it was 1.82 µM; with EKVX NSCLC, 1.82 µM; in the experiment with BT-549 breast it was 1.95 µM; with M14 melanoma, 1.74 µM; with UACC-257 melanoma it was 1.7 µM. Moreover, the GI50 with A549 NSCLC was 1.73 µM. Also, the TGI in the experiment on HCC-2998 colon came to 3.39 µM; in the experiment with HCT-116 colon, 3.27 µM; in the experiment on EKVX NSCLC it was 3.29 µM; in the experiment on BT-549 breast it was 4.28 µM; with M14 melanoma, 3.36 µM; with UACC-257 melanoma, 3.35 µM. The compound also yielded a TGI in the experiment on A549 NSCLC of 3.32 µM.

Regarding `COc1ccc2c(c1)[n+]([O-])c(-c1ccc(OC)c(OC)c1)c(N)[n+]2[O-]`, the TGI with HCC-2998 colon, in the experiment with EKVX NSCLC, with HL-60(TB) leukemia, in the experiment on M14 melanoma, with UACC-257 melanoma and in the experiment on A549 NSCLC was greater than 100 µM each time. For the same compound, the TGI was 31.5 µM in the experiment on NCI-H522 lung and greater than 100 µM with RPMI-8226 leukemia.

As for `c1ccc(C(c2ccccc2)c2cccnc2)cc1`, the TGI with HCC-2998 colon, in the experiment on HCT-116 colon, with EKVX NSCLC, in the experiment with M14 melanoma, with UACC-257 melanoma and in the experiment with A549 NSCLC was greater than 100 µM throughout. This compound came in with a TGI in the experiment on RPMI-8226 leukemia greater than 100 µM.

On to `CC(=O)NNc1nc(C)c(C(=O)/C=C/c2ccccc2Cl)s1`, for which the TGI in the experiment with HCC-2998 colon, in the experiment on EKVX NSCLC, in the experiment with HL-60(TB) leukemia, in the experiment on UACC-257 melanoma, with A549 NSCLC and in the experiment with NCI-H522 lung was greater than 100 µM each time. Also, the TGI with RPMI-8226 leukemia was greater than 100 µM.
